Structures are written as SMILES. The source made the active and inactive calls. How the calls were made is not given here.

In the test the target is Peptidyl-prolyl cis-trans isomerase FKBP1A (Homo sapiens) (UniProt P62942). Nature of the test: FKBP12 binders, biophysical, NMR detection (AID 608). The note with it: NMR binding, purified FKBP12.
Peptidyl-prolyl cis-trans isomerase FKBP1A (Homo sapiens), sequence (P62942 whole entry, looked up): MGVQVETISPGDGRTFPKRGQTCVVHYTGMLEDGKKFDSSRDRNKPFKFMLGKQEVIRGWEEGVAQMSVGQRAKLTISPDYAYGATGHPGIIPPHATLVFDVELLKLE
Broadly, the Kd is the constant that tells how readily two partners part at equilibrium. For `CC(C)(C)NC(=O)CN1C(=O)c2ccccc2S1(=O)=O`, the Kd is > 4 mM (inactive).

`O=C(O)Cc1noc2ccccc12`: the Kd was > 4 mM (inactive).

For the compound `C=C1[C@H]2CC[C@@]3(C)[C@H](c4ccoc4)OC(=O)C[C@]13O[C@H]1C[C@H](O)C(C)(C)[C@H](CC(=O)OC)[C@]12C`, the Kd is > 4 mM (inactive).

Take `OCc1ccc(N2CCOCC2)nc1`: the Kd is > 4 mM (inactive).

`NC(=O)c1c(Cl)nsc1-c1ccccc1Cl`: the Kd is > 4 mM (inactive).

As to `O=C1C2C3C=CC(C3)C2C(=O)N1c1ccccn1` (stereo not given), the Kd is > 4 mM (inactive).

Regarding `CC(=O)OC[C@@]1(O)C[C@@]23CCC4c5ccoc5CC[C@]4(C)C2CC[C@@H]1C3` (stereo not given in full), the Kd was > 4 mM (inactive).

Consider `CNC(=O)CC1Sc2ccccc2NC1=O` (stereo not given), for which the Kd is > 4 mM (inactive).

`COC(=O)Nc1ccc2ncn(C)c(=O)c2c1`: the Kd was > 4 mM (inactive).

In the case of `Cc1nnc(NCCO)[nH]c1=O`, the Kd was > 4 mM (inactive).

For `Cc1ccc(C(O)c2nccn2C)o1` (stereo not given), the Kd is > 4 mM (inactive).

For `O=C(Nc1ccccc1)Nc1ccccn1`, the Kd was > 4 mM (inactive).

Consider `CC(=O)Nc1cccc(N2C(=O)CCC2=O)c1`, for which the Kd is > 4 mM (inactive).

For `N/N=C1\CCCc2c1no[n+]2[O-]`, the Kd is > 4 mM (inactive).

As for `Cc1ccc2nc(SCC(=O)O)nc(C)c2c1`, the Kd is > 4 mM (inactive).

Consider `CCCCCC/C=C\CCCCCCCc1cccc(O)c1C(=O)O`, for which the Kd was > 4 mM (inactive).

Take `OCc1ccc(CN2CCOCC2)cc1`: the Kd is > 4 mM (inactive).

Turning to `N#Cc1nc(-c2cccs2)oc1N1CCOCC1`, the Kd was > 4 mM (inactive).

Regarding `O=C(O)c1ccc(N2CCCCC2)cc1`, the Kd was > 4 mM (inactive).

As for `NCc1ccc(-c2cccs2)cc1`, the Kd was > 4 mM (inactive).

`CC(=O)c1cc(CN2C(=O)c3ccccc3C2=O)cs1`: the Kd was > 4 mM (inactive).

In the case of `O=C(NCc1n[nH]c(=O)c2ccccc12)C1CC1`, the Kd is > 4 mM (inactive).

For `O=c1c2ccccc2oc2ccc(O)cc12`, the Kd is > 4 mM (inactive).

For the compound `COC(=O)c1cnccc1C(F)(F)F`, the Kd was > 4 mM (inactive).

In the case of `COC(=O)C1=CCCN(C)C1`, the Kd was > 4 mM (inactive).

Regarding `Cc1c(C)n2c(SCC(N)=O)nnc2[nH]c1=O`, the Kd was > 4 mM (inactive).

Turning to `CSc1nn(-c2ccccc2)c(N)c1C#N`, the Kd is > 4 mM (inactive).

With `NCc1nc2ccccc2s1`, the Kd was > 4 mM (inactive).

With `CC1=C(/C=C/C(C)=C/C=C/C(C)=C/CO)C(C)(C)CCC1`, the Kd is > 4 mM (inactive).

Consider `COC(=O)C[C@@H]1C2(C)C(=O)[C@@H](CC3C2CC[C@]2(C)C3CC(=O)O[C@H]2c2ccoc2)[C@H](OC(C)=O)C1(C)C` (stereo not given in full), for which the Kd was > 4 mM (inactive).

Regarding `O=S(=O)(N1CCCCC1)n1c(Cc2ccccc2)nc2ccccc21`, the Kd is > 4 mM (inactive).

`Nc1ccc2c(c1)C(=O)OC2`: the Kd is > 4 mM (inactive).

Turning to `O=c1[nH]c2c(c(=O)n1C1CCCCC1)CCC2`, the Kd is > 4 mM (inactive).

Consider `CC1CCN(S(=O)(=O)N(C)C)CC1`, for which the Kd was > 4 mM (inactive).

As to `O=S(=O)(Nc1ccc2c(c1)OCCO2)c1cccs1`, the Kd was > 4 mM (inactive).

As to `Cc1cc(=O)c2c(O)c(C)c(O)cc2o1`, the Kd is > 4 mM (inactive).

For `O=C(O)CCCCCCCCCCCCC1C=CCC1` (stereo not given), the Kd is > 4 mM (inactive).

Consider `O=c1[nH]c(O)c(C=NC2CC2)c(=O)[nH]1`, for which the Kd is > 4 mM (inactive).

As to `NC(=O)c1ccccc1NC(=O)C1CCCO1` (stereo not given), the Kd is > 4 mM (inactive).

Turning to `COC(=O)CSc1nnc(-c2ccc(C(=O)O)cc2)o1`, the Kd is > 4 mM (inactive).

In the case of `Oc1ccccc1C(=S)N1CCCCCC1`, the Kd is > 4 mM (inactive).

On to `O=C(CSc1ccc2ccccc2c1)N1CCOCC1`, for which the Kd was 0.18 mM.

Consider `CC(C)/C(O)=C1/C(=O)O[C@@H](c2ccoc2)[C@]2(C)C(O)[C@@H](O)[C@@]34OC5(C)OC67CC(C)(C(O)[C@]6(O)[C@@H](O)[C@]3(O5)C12)[C@H](CC(=O)O)[C@]74C` (stereo not given in full), for which the Kd is > 4 mM (inactive).

As to `COC(=O)CC1NC2CCCCC2NC1=O` (stereo not given), the Kd is > 4 mM (inactive).

Turning to `CNC(=O)C1COc2ccccc2O1` (stereo not given), the Kd is > 4 mM (inactive).

Regarding `O=C(O)C1CC(=O)N(Cc2cccs2)C1` (stereo not given), the Kd was > 4 mM (inactive).

For `O=C(Nc1ccc(-c2nnco2)cc1)c1ccccc1`, the Kd was > 4 mM (inactive).

On to `O=C(Cc1ccc(F)cc1)Nc1ncccn1`, for which the Kd was > 4 mM (inactive).

For the compound `CS(=O)(=O)Nc1cc2c3c(c1)CCN3C(=O)CC2`, the Kd was > 4 mM (inactive).

Consider `CNS(=O)(=O)c1ccc2[nH]c(=O)[nH]c2c1`, for which the Kd was > 4 mM (inactive).

As to `[O-][n+]1cc(O)c(CN2CCOCC2)c2ccccc21`, the Kd was > 4 mM (inactive).

For `CC1(C)CC(=O)c2cnn(-c3nc4ccccc4[nH]3)c2C1`, the Kd was 0.491 mM.

As to `Cc1ccccc1NC(=O)CC1NCCNC1=O` (stereo not given), the Kd is > 4 mM (inactive).

In the case of `COc1c2c(cc3cc[n+](C)cc13)OCO2`, the Kd was > 4 mM (inactive).

On to `Nc1nc(N)nc(N2C(=O)c3ccccc3C2=O)n1`, for which the Kd was > 4 mM (inactive).

As for `COc1cccc(=O)c2c(C)n(C)c(C)c12`, the Kd is > 4 mM (inactive).

As to `O=C(Nc1ccc2c(c1)CCC2)c1cnccn1`, the Kd was > 4 mM (inactive).

`c1ccc(-n2ncc3c(NCc4ccco4)ncnc32)cc1`: the Kd is > 4 mM (inactive).

Take `CSCCNC(C)=O`: the Kd is > 4 mM (inactive).

Turning to `Cc1cc(C(=O)NCc2ccco2)cs1`, the Kd is > 4 mM (inactive).

As for `CC(=O)Nc1ccc(NC2SC(=O)NC2=O)cc1` (stereo not given), the Kd was > 4 mM (inactive).

For `CSc1ncnc2nc[nH]c12`, the Kd is > 4 mM (inactive).

For `CN1CCC(N2CCCC(C(N)=O)C2)CC1` (stereo not given), the Kd is > 4 mM (inactive).

`NC(C(=O)O)C(O)C(=O)O` (stereo not given): the Kd was > 4 mM (inactive).

With `N#Cc1sc2nc3c(c(-c4cccnc4)c2c1N)CCC3`, the Kd was > 4 mM (inactive).

In the case of `Cc1noc(C)c1C(=O)Nc1ccccc1-c1ccccc1`, the Kd is > 4 mM (inactive).

On to `CC1=NN2C(=N)CC(=O)N=C2S1`, for which the Kd is > 4 mM (inactive).

On to `O=C(O)c1cccc(N2C(=O)C3CC=CCC3C2=O)c1` (stereo not given), for which the Kd was > 4 mM (inactive).

Turning to `O=C(O)c1ccc(Oc2ccccc2)nc1`, the Kd is > 4 mM (inactive).

With `CC1(C)C=Cc2cc3ccc(=O)oc3cc2O1`, the Kd is > 4 mM (inactive).

`O=c1[nH]c(=S)c2c(n1-c1ccccc1)CCC2`: the Kd is > 4 mM (inactive).

In the case of `COc1ccc(NC(=O)/C=N/O)cc1`, the Kd was > 4 mM (inactive).

On to `CS(=O)(=O)N1CCN(C(=O)c2ccccc2)C1`, for which the Kd was > 4 mM (inactive).

For `OCc1ccc(Oc2ccccc2)nc1`, the Kd is > 4 mM (inactive).

On to `Cc1nnc2ccc(N3CCCC3)nn12`, for which the Kd was > 4 mM (inactive).

The values are drawn from PubChem BioAssay AID608 (Sanford-Burnham Center for Chemical Genomics, 2007).
